Molecules are shown by their SMILES.

The data set has as its system MCF-7 cells. Kind of data set: Cytotoxicity study of DOX loaded shells vs free doxorubicin solution and empty shells. As to conditions: 5 days.

Description: Human breast cancer MCF-7 cells were obtained from ATCC.
Free DOX solution, DOX-loaded shells, and empty shells of different concentrations were used in cell cytotoxicity studies for 5 days.
A cytotoxicity study of DOX loaded shells was carried out in vitro as compared to free doxorubicin solution (FIG. 13).
All samples were incubated in culture media for 5 days.

In the case of `COc1cccc2c1C(=O)c1c(O)c3c(c(O)c1C2=O)C[C@@](O)(C(=O)CO)C[C@@H]3O[C@H]1C[C@H](N)[C@H](O)[C@H](C)O1.Cl` [Doxorubicin solution, Doxorubicin], the “cytotoxicity compared to free DOX solution” value is recorded as “strongest cytotoxicity”.

For the origin of these results see patent US20050058603A1, “Drug delivery system based on polymer nanoshells” (Case Western Reserve University, priority 2003, published 2005).
